Assay [1] has as its system Daudi cells. Put plainly: CDC assay. In kind it is cell-based. Particulars: 10% complement. The procedure: For CDC assay Daudi target cells were harvested and cell concentration was adjusted to 80×10^4 cells/mL with cell culture medium. To a flat-bottom 96-well white plate, 25 μL/well of cells was added. Then, 12.5 μL/well of P1C4, Rituximab, Anti-HEL-hIgG1, and Anti-HEL-hIgG2, serially diluted in ADCC medium, were added to each well in duplicate. […] The plates were incubated in the hood for 15 minutes. Human complement, diluted with ADCC medium, was added to the plates containing cells at 12.5 μL/well to reach a final concentration of 10%. For the maximum lysis wells, 5 μL of lysis solution was added. The final volume of all the wells was adjusted to 50 μL with ADCC medium. The plates were incubated at 37° C. for 2 hours before 50 μL/well of CTG solution was added to the cells. The plates were shaken on a microplate shaker for 2 minutes at a speed of 200 and then incubated at room temperature for 10 minutes. The luminescence signal was red with Envision. For data analysis, % cytotoxicity and IC50 was calculated using GraphPad Prism 5.0 as follows: […]

Assay [2] has as its system Daudi cells. In words: ADCC assay. The format is cell-based. How it is done:
For ADCC assay, Daudi target cell concentration was adjusted to 12.5×10^4 cells/mL with ADCC medium. 80 μL of cell suspension (1×10^4 viable cells) was added to each well of a round-bottom 96-well plate. Twenty μL of antibody, serially diluted in ADCC medium, was dispensed to each well in triplicate. […] The plate was incubated at 22-25° C. for 30 minutes. PBMC concentration was adjusted with ADCC medium so that by adding […] of PBMC cells to the target cells, the Effector: Target cell ratio were 25:1 and 50:1, respectively. The plate was centrifuged at 250×g for 4 minutes and then incubated at 37° C. 45 minutes prior to harvesting the supernatant, 20 μL of lysis solution from the CytoTox 96 kit (Promega) was added to maximum lysis control wells. After a 5 hour incubation, the plate was centrifuged at 250×g for 4 minutes. 50 μL of supernatant from each well was transfer to a clean flat-bottom 96 well assay plate. 50 μL of substrate from CytoTox 96 kit (Promega) was added to each well and mixed for 30 seconds. The plate was incubated at room temperature for 30 minutes before 50 μL of stop solution was added to each well and mixed for 30 seconds. The absorbance was read at 490 nm. For data analysis: the % lysis is calculated using GraphPad Prism 5.0 to generate the IC50, as follows: […]

From patent publication US11421026B2, “Antibodies that bind human cannabinoid 1 (CB1) receptor” (BIRD ROCK BIO, Inc., priority 2015, dated 2022) come the findings set out here.

Consider “Rituximab: positive control antibody in ADCC and CDC assays”, for which, in the assay with Daudi cells [1], the “CDC IC50” value turned out to be 399 ng/mL. The “ADCC IC50” value was determined as 0.92 ng/mL in the assay with Daudi cells [2] (25:1 E/T ratio) and 1.19 ng/mL in the assay on Daudi cells [2] (50:1 E/T ratio).
